Measurements reported in US20240408042A1, “ORALLY DISINTEGRATING BACLOFEN COMPOSITIONS AND METHODS OF MAKING SAME” (Clinical Research Associates LLC, priority 2023, published 2024).

Tests used:
[1] = animal models; cited from earlier work
[2] = compared with S-baclofen; cited from earlier work
[3] = Excipient solubility in HPLC method diluent; format: physicochemical; conditions: approximately 1 to 2 mg/mL

SMILES | Completely Soluble in 85% 50 mM Potassium Phosphate, pH 3.0, 15% ACN [3] | other results
NCC(CC(=O)O)c1ccc(Cl)cc1 (racemic) [Baclofen, (±)-4-Amino-3-(4-chlorophenyl) butanoic acid] |  | absorption following administration into the colon [1]: poorly absorbed
NC[C@H](CC(=O)O)c1ccc(Cl)cc1 (single isomer, unassigned) [R-baclofen] |  | potency in reducing obsessive-compulsive and repetitive behavior and audiogenic seizures [2]: more potent than S-baclofen
OC[C@@H](O)[C@@H](O)[C@H](O)[C@H](O)CO [Pearlitol 300DC, Mannitol] | Yes | 
CCCCCCCCCCCCCCCCCCOC(=O)/C=C/C(=O)[O-].[Na+] [Pruv, Sodium Stearyl Fumarate] | No | 
OC[C@H]1O[C@H](O[C@]2(CCl)O[C@H](CCl)[C@@H](O)[C@@H]2O)[C@H](O)[C@@H](O)[C@H]1Cl [Sucralose] | Yes | 
